Six molecules from publication PMC5667895, “Cellodextrin phosphorylase from Ruminiclostridium thermocellum: X-ray crystal structure and substrate specificity analysis” (Carbohydrate Research, 2017) can be followed below.

In series [1] the target is T1, cellodextrin phosphorylase (CDP) (Acetivibrio thermocellus, UniProt Q93HT8).
T1 construct: gene cdp-ym4
As to the kind of experiment: X-ray crystallography, […] Å. Type of series: binding.

In series [2] the target is T1, cellodextrin phosphorylase (CDP). Kind of series: capillary electrophoresis competition assay of glucan polymerization. Type of series: biochemical.
Substrate in series [3]: OC[C@H]1O[C@@H](Oc2ccccc2)[C@H](O)[C@@H](O)[C@@H]1O
Kind of series: phosphate release assay, Michaelis-Menten fit. The series is classed as biochemical, Acetivibrio thermocellus. To be noted: acceptor, synthetic direction, 10 mM Glc-1-P, HEPES 50 mM pH 7.5, 21 °C.

For the molecule `OC[C@H]1O[C@@H](O[C@H]2[C@H](O)[C@@H](O)[C@H](O[C@H]3[C@H](O)[C@@H](O)[C@H](O[C@H]4[C@H](O)[C@@H](O)C(O)O[C@@H]4CO)O[C@@H]3CO)O[C@@H]2CO)[C@H](O)[C@@H](O)[C@@H]1O` (stereo partly drawn) [(β-1→4-Glc)4], the “X-ray crystallography, 3.0 Å” value in series [1] (crystal soaked with 10 mM cellohexaose, density modelled as cellotetraose, with phosphate, active site subsites −1 to +3) is “additional electron density in the active site cleft, which was interpreted as a cellotetraose molecule”. Regarding `N[C@H]1[C@H](O[C@H]2[C@H](O)[C@@H](O)[C@H](O[C@H]3[C@H](O)[C@@H](O)C(O)O[C@@H]3CO)O[C@@H]2CO)O[C@H](CO)[C@@H](O)[C@@H]1O` (stereo partly drawn) [(β-1→4-GlcN(Glc)2)], in series [2] (5 mM trisaccharide vs 0.5 mM (β-1→4-Glc)3-APTS, 50 mM Glc-1-P, HEPES 50 mM pH 7.6, 40 °C, acceptor competition, also an acceptor substrate), the “capillary electrophoresis competition assay of glucan polymerization” value is “the average extension of (β-1→4-Glc)3-APTS reduced substantially”. Turning to `OC1OC[C@@H](O[C@@H]2OC[C@@H](O[C@@H]3OC[C@@H](O)[C@H](O)[C@H]3O)[C@H](O)[C@H]2O)[C@H](O)[C@H]1O` (stereo partly drawn) [(β-1→4-Xyl)3], the “capillary electrophoresis competition assay of glucan polymerization” value in series [2] (10 mM xylotriose vs 13.5 μM (β-1→4-Glc)6-APTS, 10 mM Glc-1-P, HEPES 50 mM pH 7.5, 40 °C, acceptor competition) is reported as “suggesting binding of xylotriose to the active site of the enzyme”. For the molecule `O=P(O)(O)O[C@H]1O[C@H](CO)[C@@H](O)[C@H](O)[C@@H]1O` [Man-1-P], the “capillary electrophoresis competition assay of glucan polymerization” value in series [2] (10 mM Man-1-P vs 1 mM Glc-1-P and 2 μM (β-1→4-Glc)6-APTS, HEPES 50 mM pH 7.5, 40 °C, competitive with donor) is reported as “Man-1-P caused a great decrease in glucan oligomer length”. For the molecule `O=P(O)(O)O` [phosphate], the “X-ray crystallography, 3.0 Å” value in series [1] (crystal grown with 10 mM phosphate buffer, active site, adjacent to the glucan) is reported as “interpreted as a cellotetraose molecule with an adjacent phosphate ion”.

B1: cellodextrin phosphorylase (CDP) (Acetivibrio thermocellus) (protein)
chain: MITKVTARNNKITPVELLNQKFGNKINLGNFADAVFTDAAFKNVAGIANLPMKAPVMQVLMENCIVSKYLKQFVPDRSVCFVEEGQKFYIVLEDGQKIEVPEDVNKALKATVSDVKHWAGYLTEDGEHVIDLLKPAPGPHFYVNLLIGNRLGFKRTLQTTPKSVVDRFGRGSFRSHAATQVLATRFDMRQEENGFPANRQFYLYEDGKQIFYSALIDDNIVEATCKHSCNRTVIKYKTACNLEITRTIFLVPHKKGFPLATELQRIEIKNASDKARNLSITYTGMFGTGAVHAIFEDVTYTNVIMQSAALYNDKGEFIGITPDYYPEEFKQDTRFVTMIVRNGDEKSFPQSFCTDYNDFVGTGTLEHPAGGCNLNNKLNRKGPGFFALGAPFTVEPGKTVIIDTFTGLSSSKDNENYSDAVMLRELDNLLRYFEKSESVEETLNEIINFHENYGKYFQFNTGNKLFDSGFNRNLAFQVLYQTFMSRSFGQTQKGYREIGFREIQDLFASMYYFINIGYQDFVKELLFEWTANVYKMGYANHNFYWVGKQPGLYSDDSLWLLQAYYRYIIYTKDTSVLNEEVPVADGNNEKRAVRETLKAIIQYSACISVGDHGLPLLDLADWNDCLKIASNSIDGATKEKLYYEQLKKTNGKYGDRFMSDYSESVMNAFLLKLAIDHLAEIATLDNDTQLAQQMSELSKEVTDRIQKHAWKENFFARVLINRYKDGSYTYLGAKGDKLSADPNIDGVYFLNSFAWSVLSDVATDEQIAIMVDVIKKHLLTPYGLRLVTPADLNKIANDTATGHYFFGDRENGAVFKHASMMAVAALIKAAKKVKDNELAKEMARIAYFMIDLVLPYKNLENPFQVAGNPRICTQYINTDTGENIGPLLSGTATWLNLNLISLAGIEYTRDGISFNPILREEETQLNFTLKAPKCSYKFSITKPVGFARMESSEYELFVDGQKIDNTVIPMYTDEKEHIVTLKFK
With B1, in series [3], the Km worked out at 24 ± 13 mM, the turnover number (kcat) was found to be 15 ± 6.3 s⁻¹ and the kcat/Km stood at 630 M⁻¹ s⁻¹.
